# Data taken from patent publication US5204323A, “Heparin and hirudin antidotal compositions and methods” (Ciba-Geigy Corporation, priority 1988, dated 1993).
# Key:
# [1] = tested on: Factor VIII levels in human plasma; test: DDAVP infusion into human volunteers, Factor VIII levels in plasma; assay type: in vivo; details: DDAVP 0.3 mg/kg in sterile saline infused over 15 minutes, compared to volume matched saline controls, FIG. 7
# Description: (§1) 1-Deamino-8-D-arginine vasopressin (DDAVP) ([…] in sterile saline) is infused into human volunteers over a 15 minute period between times 0-15 minutes. Subsequently blood samples are taken and FVIII levels measured (Langdell et al. (1953) J. Lab. Chim. Med. 41, 637) and the correspond. ing effect on hirudin induced elevation of APTT in vitro asessed. The results are shown in FIG. 7 which represent a typical example of ten volunteer studies. […] Results are compared to volume matched saline controls.
# [2] = tested on: hirudin induced elevation of APTT in human plasma; test: Hirudin induced elevation of APTT in vitro in blood samples taken after DDAVP infusion; assay type: in vivo; details: blood samples of human volunteers after DDAVP infusion (0.3 mg/kg, 15 minutes); desulphatohirudin HV1 added in vitro; FIG. 7
# Description: The anticoagulant effects of hirudin are measured in vitro on human plasma to which various concentrations of hirudin (in saline) have been added, one minute prior to APTT determination (Activated partial thromboplastin time; means for measuring blood clotting according to Basu et al. (1972) N. Engl. J. Med. 287, 324). Different concentrations of FVIII (reconstituted in water in accordance with the manufacturers specification) are added and the results are shown in FIG. 3 of the accompanying drawings. The anticoagulant effects of hirudin are measured by APTT.
# as §1
compound,measurement,setting,value
"NC(=O)CC[C@@H]1NC(=O)[C@H](Cc2ccccc2)NC(=O)[C@H](Cc2ccc(O)cc2)NC(=O)CCSSC[C@@H](C(=O)N2CCC[C@H]2C(=O)N[C@H](CCCN=C(N)N)C(=O)NCC(N)=O)NC(=O)[C@H](CC(N)=O)NC1=O [DDAVP, 1-deamino-8-D-arginine vasopressin]",FVIII levels,[1],raised FVIII levels
same,effect on hirudin induced elevation of APTT in vitro,[2],reduces the degree of anticoagulation induced by hirudin
